Measurements reported in patent US12551563B2, “ERK5 degraders as therapeutics in cancer and inflammatory diseases” (DANA-FARBER CANCER INSTITUTE, INC., priority 2019, dated 2026).
Values belong to the compound of their own block, whether it stands above or below them.

Experiments:
Assay type in all cases: cell-based
ERK5 [1] = target: T1, ERK5 (Homo sapiens, UniProt Q13164); experiment: Western blot, rescue of compound 7-induced ERK5 degradation by pretreatment in MIA Paca-2 cells; design: immunoblotted with primary antibodies against ERK5 (Cell Signaling®); endogenous in cells; host or cells: MIA PaCa-2; details: for Rescue of ERK5 degradation induced by bispecific compound 7: then 1 μM compound 7 for 24 h (FIG. 3)
Description: (§1) MIA Paca-2 cells were treated with 0, 0.1, 1, or 10 μM of bispecific compounds 3-7 for 24 hours. Cells were then lysed in RIPA buffer (Sigma®) containing protease/phosphatase inhibitor cocktail (Roche®). The protein concentrations were measured by bicinchoninic acid assay (BCA) analysis (Pierce™). Equal amounts of protein were resolved by 4-12% Tris-Base gels (Invitrogen™), and then transferred to the Immuno-Blot PVDF membrane (BioRad), and immunoblotted with primary antibodies against ERK5 (Cell Signaling®) and […] (Cell Signaling®), and then immunoblotted with IRDye®800-labeled goat anti-rabbit IgG and IRDye®800-labeled goat anti-mouse IgG (LI-COR) secondary antibodies. The membranes were detected on Odyssey® CLx system.
MIA Paca-2 cells were pretreated with 10 μM XMD17-109 (the parental compound and known ERK5 inhibitor; available from, e.g., MedChemExpress, Cat. No. HY-15665, Monmouth Junction, N.J.), 10 μM DGY-05-180 (VHL ligand), 0.1 μM Bortezomib (a proteasome inhibitor; available from, e.g., Millipore Sigma, Cat. No. 179324-69-7, Burlington, Mass.), and 1 μM MLN4924 (a neddylation inhibitor; available from, e.g., MedChemExpress, Cat. No. HY-70062, Monmouth Junction, N.J.), for 2 h, and then treated with 1 μM bispecific compound 7 for 24 h. Cells were lysed and immunoblotted as described above with antibodies to ERK5 and GAPDH (Cell Signaling®).

ERK5 [2] = target: T1, ERK5; experiment: Western blot of ERK5 degradation in A375 cells; design: immunoblotted with primary antibodies against ERK5 (Cell Signaling®); endogenous in cells; host or cells: A375; details: 24 hours, at 1 and 10 μM (FIG. 2)
Description: as §1
A375 cells were treated with 0, 0.1, 1, or 10 μM of bispecific compounds 3, 4, and 7-9 for 24 hours. Cells were lysed and immunoblotted as described above with antibodies to ERK5 and β-Actin.

ERK5 [3] = target: T1, ERK5; experiment: Western blot of ERK5 degradation in MIA Paca-2 cells; design: immunoblotted with primary antibodies against ERK5 (Cell Signaling®); endogenous in cells; host or cells: MIA PaCa-2; details: 24 hours, at 1 and 10 μM (FIG. 1)
Description: as §1

BRD4 = target: T2, BRD4 (Homo sapiens, UniProt O60885); experiment: Western blot of BRD4 degradation in MOLT4 cells (dose curve); details: 5 hours, 0.1, 0.25, 0.5, or 1 μM (FIG. 5)
T2 construct: endogenous in cells; host or cells: MOLT4
Description: as §1
(§2) MOLT4 cells were treated with 0.1, 0.25, 0.5, or 1 μM of bispecific compounds 18 and 23 for 5 hours. Cells were lysed and immunoblotted as described above with antibodies to ERK5, BRD4, and β-Actin.

ERK5 [4] = target: T1, ERK5; experiment: Western blot of ERK5 degradation in MOLT4 cells (dose curve); design: immunoblotted with primary antibodies against ERK5 (Cell Signaling®); endogenous in cells; host or cells: MOLT4; details: 5 hours, 0.1, 0.25, 0.5, or 1 μM (FIG. 5)
Description: as §1, §2

ERK5 [5] = target: T1, ERK5; experiment: Western blot of ERK5 degradation in MOLT4 cells (0.1 or 1 μM); design: immunoblotted with primary antibodies against ERK5 (Cell Signaling®); endogenous in cells; host or cells: MOLT4; details: 5 hours, at 0.1 and 1 μM (FIG. 4)
Description: as §1
MOLT4 cells were treated with 0.1 or 1 μM of bispecific compounds 15-20 for 5 hours. Cells were lysed and immunoblotted as described above with antibodies to ERK5 and β-Actin.

T1 sequence (Q13164 whole entry): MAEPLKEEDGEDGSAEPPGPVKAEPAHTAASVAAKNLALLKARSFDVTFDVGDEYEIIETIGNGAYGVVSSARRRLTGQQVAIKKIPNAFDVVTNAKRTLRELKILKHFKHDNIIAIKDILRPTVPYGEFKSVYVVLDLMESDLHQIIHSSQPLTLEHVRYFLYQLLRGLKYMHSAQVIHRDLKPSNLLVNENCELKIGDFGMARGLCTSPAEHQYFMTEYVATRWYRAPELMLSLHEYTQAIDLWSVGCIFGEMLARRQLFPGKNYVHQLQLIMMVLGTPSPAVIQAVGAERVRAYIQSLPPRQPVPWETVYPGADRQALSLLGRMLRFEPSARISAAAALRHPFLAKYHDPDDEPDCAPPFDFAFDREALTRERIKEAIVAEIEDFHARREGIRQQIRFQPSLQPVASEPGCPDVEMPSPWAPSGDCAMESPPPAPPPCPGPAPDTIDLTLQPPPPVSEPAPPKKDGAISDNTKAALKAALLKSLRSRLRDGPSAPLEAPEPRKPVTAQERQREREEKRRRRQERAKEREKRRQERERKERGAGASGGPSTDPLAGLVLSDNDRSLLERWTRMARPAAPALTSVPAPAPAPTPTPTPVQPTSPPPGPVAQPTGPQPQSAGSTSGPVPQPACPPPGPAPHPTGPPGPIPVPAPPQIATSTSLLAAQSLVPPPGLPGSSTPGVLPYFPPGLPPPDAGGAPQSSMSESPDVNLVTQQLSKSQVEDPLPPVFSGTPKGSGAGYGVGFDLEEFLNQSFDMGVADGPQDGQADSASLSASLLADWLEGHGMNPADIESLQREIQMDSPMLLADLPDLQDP

Compound: CC(C)C[C@H](NC(=O)[C@H](Cc1ccccc1)NC(=O)c1cnccn1)B(O)O [Bortezomib]
Rescue of ERK5 degradation induced by bispecific compound 7 (ERK5 [1]; pretreated 2 h with 0.1 μM): rescued the ERK5 degradation induced by bispecific compound 7

Compound: NS(=O)(=O)OC[C@@H]1C[C@@H](n2ccc3c(N[C@H]4CCc5ccccc54)ncnc32)C[C@@H]1O [MLN4924]
Rescue of ERK5 degradation induced by bispecific compound 7 (ERK5 [1]; pretreated 2 h with 1 μM): rescued the ERK5 degradation induced by bispecific compound 7

Compound: CCOc1cc(C(=O)N2CCC(N3CCN(C)CC3)CC2)ccc1Nc1ncc2c(n1)N(C1CCCC1)c1ccccc1C(=O)N2C [XMD17-109]
Rescue of ERK5 degradation induced by bispecific compound 7 (ERK5 [1]; pretreated 2 h with 10 μM): rescued the ERK5 degradation induced by bispecific compound 7

ERK5 degradation (Western blot) (ERK5 [2]): induced the degradation of ERK5
ERK5 degradation (Western blot) (ERK5 [3]): induced the degradation of ERK5
Dependence of ERK5 degradation (mechanism) (ERK5 [1]; 1 μM for 24 h after pretreatment with competitors/inhibitors (FIG. 3)): both ligand and proteasome dependent
Compound: Cc1ncsc1-c1ccc([C@H](C)NC(=O)[C@@H]2C[C@@H](O)CN2C(=O)[C@@H](NC(=O)CCCCCCCNC(=O)c2ccc(Nc3ncc4c(n3)N(C3CCCC3)c3ccccc3C(=O)N4C)cc2)C(C)(C)C)cc1 [compound 7, (2S,4R)-1-((S)-2-(8-(4-((11-cyclopentyl-5-methyl-6-oxo-6,11-dihydro-5H-benzo[e]pyrimido[5,4-b][1,4]diazepin-2-yl)amino)benzamido)octanamido)-3,3-dimethylbutanoyl)-4-hydroxy-N-((S)-1-(4-(4-methylthiazol-5-yl)phenyl)ethyl)pyrrolidine-2-carboxamide]

BRD4 degradation (Western blot) (BRD4): induced the degradation of ERK5 and BRD4
ERK5 degradation (Western blot) (ERK5 [4]): induced the degradation of ERK5
ERK5 degradation (Western blot) (ERK5 [5]): induced the degradation of ERK5
Compound: Cc1ncsc1-c1ccc([C@H](C)NC(=O)[C@@H]2C[C@@H](O)CN2C(=O)[C@@H](NC(=O)CCCCCN2CCN(C(=O)c3ccc(Nc4ncc5c(n4)N(C4CCCC4)c4ccccc4C(=O)N5C)cc3)CC2)C(C)(C)C)cc1 [compound 18, (2S,4R)-1-((S)-2-(6-(4-(4-((11-cyclopentyl-5-methyl-6-oxo-6,11-dihydro-5H-benzo[e]pyrimido[5,4-b][1,4]diazepin-2-yl)amino)benzoyl)piperazin-1-yl)hexanamido)-3,3-dimethylbutanoyl)-4-hydroxy-N-((S)-1-(4-(4-methylthiazol-5-yl)phenyl)ethyl)pyrrolidine-2-carboxamide]

ERK5 degradation (Western blot) (ERK5 [4]): induced the degradation of ERK5
Compound: CCC(C)N1c2ccccc2C(=O)N(C)c2cnc(Cc3ccc(C(=O)N4CCN(CCCCCC(=O)N[C@H](C(=O)N5C[C@H](O)C[C@H]5C(=O)N[C@@H](C)c5ccc(-c6scnc6C)cc5)C(C)(C)C)CC4)cc3)nc21 (stereo partly drawn) [compound 23, (2S,4R)-1-((2S)-2-(6-(4-(4-((11-(sec-butyl)-5-methyl-6-oxo-6,11-dihydro-5H-benzo[e]pyrimido[5,4-b][1,4]diazepin-2-yl)methyl)benzoyl)piperazin-1-yl)hexanamido)-3,3-dimethylbutanoyl)-4-hydroxy-N-((S)-1-(4-(4-methylthiazol-5-yl)phenyl)ethyl)pyrrolidine-2-carboxamide]
